Measured values: US20080318943A1, “Compounds and Uses Thereof - 848” (ASTRAZENECA AB, priority 2007, published 2008)

Key:
[1] = target: T1, GABAA2 receptors (α2, β3, γ2 receptor subunits transfected into Sf9 cells) (Homo sapiens, UniProt P18507+P47869); assay: GABAA2 Binding Method ([3H]-Flunitrazepam displacement); settings: [3H]-Flunitrazepam ~2 nM, α2β3γ2 Sf9 membranes, 1 hr at 4° C.
T1 construct: host or cells: Sf9 cells (membranes)
In short: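 Displacement of [3H]-flunitrazepam (~2 nM in assay) from recombinant human α2β3γ2 receptors in Sf9 membranes; 1 h incubation at 4 °C, harvest by filtration. Values reported as percent of control, IC50 and Ki.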

GABAA receptor α1β2γ2 = target: T2, GABAA receptor α1β2γ2 (Homo sapiens, UniProt P14867+P18507); assay: Two-electrode voltage-clamp potentiation of GABA EC10 current in Xenopus oocytes, GABAA1; type: cell-based; settings: percentage potentiation of GABA EC10 current divided by that of diazepam
T2 construct: expressed in transfected cells; host or cells: Xenopus laevis oocytes injected with cRNA
In short: (§1)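 Human GABAA receptors expressed in Xenopus oocytes by cRNA injection (α:β:γ molar ratio ~1:1:10 for α1β2γ2, 1:1:1 for α2β3γ2), recorded 2-10 days later by two-electrode voltage clamp at −60 mV in ND-96, pH 7.5. Modulator preapplied 30 s before GABA at per-oocyte EC10. Peak-current percent potentiation over GABA alone, normalised to diazepam.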

GABAA receptor α2β3γ2 = target: T3, GABAA receptor α2β3γ2 (Homo sapiens, UniProt P18507+P47869); assay: Two-electrode voltage-clamp potentiation of GABA EC10 current in Xenopus oocytes, GABAA2; type: cell-based; settings: percentage potentiation of GABA EC10 current divided by that of diazepam
T3 construct: expressed in transfected cells; host or cells: Xenopus laevis oocytes injected with cRNA
In short: as §1

T2 sequence (P14867 28-456): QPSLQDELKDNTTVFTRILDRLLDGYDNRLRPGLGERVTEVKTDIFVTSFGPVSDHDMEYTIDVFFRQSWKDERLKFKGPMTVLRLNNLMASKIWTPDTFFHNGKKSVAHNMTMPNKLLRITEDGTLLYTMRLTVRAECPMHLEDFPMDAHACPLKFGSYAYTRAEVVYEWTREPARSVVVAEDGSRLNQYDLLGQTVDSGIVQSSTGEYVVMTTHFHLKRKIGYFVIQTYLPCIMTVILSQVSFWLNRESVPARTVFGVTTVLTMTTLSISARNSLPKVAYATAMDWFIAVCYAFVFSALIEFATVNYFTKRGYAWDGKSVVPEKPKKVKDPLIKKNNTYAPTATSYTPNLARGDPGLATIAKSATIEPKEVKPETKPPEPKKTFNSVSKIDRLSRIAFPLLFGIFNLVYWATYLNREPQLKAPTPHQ
T2 sequence (P47870 25-512 partner limits assumed): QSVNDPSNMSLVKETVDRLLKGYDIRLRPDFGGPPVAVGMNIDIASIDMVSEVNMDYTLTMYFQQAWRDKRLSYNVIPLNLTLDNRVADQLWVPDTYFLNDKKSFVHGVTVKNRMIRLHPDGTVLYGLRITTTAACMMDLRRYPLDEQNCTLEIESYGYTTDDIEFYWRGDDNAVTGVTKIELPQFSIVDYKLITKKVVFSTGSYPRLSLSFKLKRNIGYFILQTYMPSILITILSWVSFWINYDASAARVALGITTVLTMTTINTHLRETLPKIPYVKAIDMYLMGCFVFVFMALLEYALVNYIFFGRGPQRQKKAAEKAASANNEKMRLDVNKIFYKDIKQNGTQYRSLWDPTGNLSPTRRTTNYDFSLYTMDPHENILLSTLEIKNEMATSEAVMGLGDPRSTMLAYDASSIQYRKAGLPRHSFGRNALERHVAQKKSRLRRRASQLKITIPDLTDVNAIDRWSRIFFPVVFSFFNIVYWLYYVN
T2 sequence (P18507 40-475): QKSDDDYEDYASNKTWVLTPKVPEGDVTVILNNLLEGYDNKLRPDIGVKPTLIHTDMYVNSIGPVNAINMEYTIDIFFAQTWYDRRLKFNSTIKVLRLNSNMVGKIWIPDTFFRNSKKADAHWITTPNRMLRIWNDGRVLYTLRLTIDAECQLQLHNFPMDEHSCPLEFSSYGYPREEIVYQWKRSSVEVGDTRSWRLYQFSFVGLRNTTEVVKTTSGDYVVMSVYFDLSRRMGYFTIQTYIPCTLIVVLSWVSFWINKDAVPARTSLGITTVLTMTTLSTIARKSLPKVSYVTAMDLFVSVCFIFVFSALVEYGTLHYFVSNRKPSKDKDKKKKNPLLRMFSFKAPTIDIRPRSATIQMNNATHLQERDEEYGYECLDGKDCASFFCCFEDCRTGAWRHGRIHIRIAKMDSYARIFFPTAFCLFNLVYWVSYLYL
T1 sequence (P47869 29-451): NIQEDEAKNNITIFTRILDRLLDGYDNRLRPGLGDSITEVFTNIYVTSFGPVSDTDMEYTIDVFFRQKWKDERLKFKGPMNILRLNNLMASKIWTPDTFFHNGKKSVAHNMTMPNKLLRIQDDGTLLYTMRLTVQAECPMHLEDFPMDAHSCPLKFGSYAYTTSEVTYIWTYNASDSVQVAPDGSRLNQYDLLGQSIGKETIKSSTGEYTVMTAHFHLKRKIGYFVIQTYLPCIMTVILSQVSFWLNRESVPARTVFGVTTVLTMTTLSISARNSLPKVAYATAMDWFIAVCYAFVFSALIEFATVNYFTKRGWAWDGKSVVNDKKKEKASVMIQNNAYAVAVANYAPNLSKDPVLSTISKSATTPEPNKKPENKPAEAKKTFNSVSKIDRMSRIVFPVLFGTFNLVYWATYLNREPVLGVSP
T1 sequence (P28472 26-473 partner): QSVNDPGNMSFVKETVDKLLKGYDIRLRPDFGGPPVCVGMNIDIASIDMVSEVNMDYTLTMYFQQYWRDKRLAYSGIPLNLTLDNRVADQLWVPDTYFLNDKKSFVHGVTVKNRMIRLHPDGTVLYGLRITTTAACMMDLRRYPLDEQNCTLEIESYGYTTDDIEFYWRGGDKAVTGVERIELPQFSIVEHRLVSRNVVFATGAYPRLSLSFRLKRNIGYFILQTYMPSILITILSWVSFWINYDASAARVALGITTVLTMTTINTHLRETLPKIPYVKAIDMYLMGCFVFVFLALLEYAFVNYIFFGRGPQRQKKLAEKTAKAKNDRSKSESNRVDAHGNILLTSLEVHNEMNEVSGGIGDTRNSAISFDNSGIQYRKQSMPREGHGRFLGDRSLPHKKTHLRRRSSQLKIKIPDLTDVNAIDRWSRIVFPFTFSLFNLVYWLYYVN
T1 sequence (P18507 40-475): as the sequence (P18507 40-475) above
T3 sequence (P47869 29-451): as the sequence (P47869 29-451) above
T3 sequence (P28472 26-473 partner): as the sequence (P28472 26-473 partner) above
T3 sequence (P18507 40-475): as the sequence (P18507 40-475) above

Row | Structure (SMILES) | Ki [1] [nM] | Relative Potentiation for GABAA1 (GABAA receptor α1β2γ2) | Relative Potentiation for GABAA2 (GABAA receptor α2β3γ2)
1 | CCCN1Cc2nc3c(-c4cc(C)ccc4C)cccc3c(N)c2C1=O [9-amino-5-(2,5-dimethylphenyl)-2-propyl-2,3-dihydro-1H-pyrrolo[3,4-b]quinolin-1-one] | 56.8 | 0.22 | 0.2
2 | CCN1Cc2nc3c(-c4c(F)cc(OC)cc4F)c(F)ccc3c(N)c2C1=O [9-amino-5-(2,6-difluoro-4-methoxyphenyl)-2-ethyl-6-fluoro-2,3-dihydro-1H-pyrrolo[3,4-b]quinolin-1-one] | 4.5 | −0.09 | −0.02
3 | CCCN1Cc2nc3c(-c4ccc(C)nc4C)cccc3c(N)c2C1=O [9-amino-5-(2,6-dimethylpyridin-3-yl)-2-propyl-2,3-dihydro-1H-pyrrolo[3,4-b]quinolin-1-one] | 2.63 | 0.45 | 0.41
4 | CCCN1Cc2nc3c(-c4cc(C)cnc4Cl)cccc3c(N)c2C1=O [9-amino-5-(2-chloro-5-methylpyridin-3-yl)-2-propyl-2,3-dihydro-1H-pyrrolo[3,4-b]quinolin-1-one] | 6.63 | 0.44 | 0.61
5 | COc1cccc(Cl)c1-c1cccc2c(N)c3c(nc12)CN(C1CCC1)C3=O [9-amino-5-(2-chloro-6-methoxyphenyl)-2-cyclobutyl-2,3-dihydro-1H-pyrrolo[3,4-b]quinolin-1-one] | 2.22 | −0.15 | 0.051
6 | CCCN1Cc2nc3c(-c4cc(OC)ccc4F)cccc3c(N)c2C1=O [9-amino-5-(2-fluoro-5-methoxyphenyl)-2-propyl-2,3-dihydro-1H-pyrrolo[3,4-b]quinolin-1-one] | 12.5 | 0.39 | 0.39
7 | CCCN1Cc2nc3c(-c4ccc(C)nc4F)cccc3c(N)c2C1=O [9-amino-5-(2-fluoro-6-methylpyridin-3-yl)-2-propyl-2,3-dihydro-1H-pyrrolo[3,4-b]quinolin-1-one] | 19.7 | 0.22 | 0.37
8 | COc1ccc(CN2Cc3nc4c(-c5cccnc5F)cccc4c(N)c3C2=O)cc1 [9-amino-5-(2-fluoropyridin-3-yl)-2-(4-methoxybenzyl)-2,3-dihydro-1H-pyrrolo[3,4-b]quinolin-1-one] | 6.82 | 0.18 | 0.32
9 | CCCN1Cc2nc3c(-c4cccnc4C)cccc3c(N)c2C1=O [9-amino-5-(2-methylpyridin-3-yl)-2-propyl-2,3-dihydro-1H-pyrrolo[3,4-b]quinolin-1-one] | 11.4 | 0.22 | 0.26
10 | CCCN1Cc2nc3c(-c4cnccc4C)cccc3c(N)c2C1=O [9-amino-5-(4-methylpyridin-3-yl)-2-propyl-2,3-dihydro-1H-pyrrolo[3,4-b]quinolin-1-one] | 55.7 | 0.36 | 0.34
11 | CCCN1Cc2nc3c(-c4cc(Cl)ccc4OC)cccc3c(N)c2C1=O [9-amino-5-(5-chloro-2-methoxyphenyl)-2-propyl-2,3-dihydro-1H-pyrrolo[3,4-b]quinolin-1-one] | 39.6 | 0.36 | 0.54
12 | CCCN1Cc2nc3c(-c4cc(F)ccc4OC)cccc3c(N)c2C1=O [9-amino-5-(5-fluoro-2-methoxyphenyl)-2-propyl-2,3-dihydro-1H-pyrrolo[3,4-b]quinolin-1-one] | 80.3 | 0.19 | 0.25
13 | CCCN1Cc2nc3c(-c4ccc(F)nc4C)cccc3c(N)c2C1=O [9-amino-5-(6-fluoro-2-methylpyridin-3-yl)-2-propyl-2,3-dihydro-1H-pyrrolo[3,4-b]quinolin-1-one] | 22.3 | 1.7 | 0.48
14 | COc1ccc(CN2Cc3nc4c(-c5ccc(-c6ccc(Cl)nc6)nc5)cccc4c(N)c3C2=O)cc1OC [9-amino-5-(6′-chloro-2,3′-bipyridin-5-yl)-2-(3,4-dimethoxybenzyl)-2,3-dihydro-1H-pyrrolo[3,4-b]quinolin-1-one] | 20.4 | −0.048 | 0.023

Continued, values first:

Row | Ki [1] [nM] | Relative Potentiation for GABAA1 (GABAA receptor α1β2γ2) | Relative Potentiation for GABAA2 (GABAA receptor α2β3γ2) | Structure (SMILES)
15 | 14.9 | −0.1 | 0.052 | COc1cccc(Cl)c1-c1cccc2c(N)c3c(nc12)CN(C1CC1)C3=O [9-amino-5-(2-chloro-6-methoxyphenyl)-2-cyclopropyl-2,3-dihydro-1H-pyrrolo[3,4-b]quinolin-1-one]
16 | 4.85 | −0.15 | 0.013 | COc1cccc(Cl)c1-c1c(F)ccc2c(N)c3c(nc12)CN(C1CC1)C3=O [9-amino-5-(2-chloro-6-methoxyphenyl)-2-cyclopropyl-6-fluoro-2,3-dihydro-1H-pyrrolo[3,4-b]quinolin-1-one]
17 | 47.2 | 0.17 | 0.37 | CCCN1Cc2nc3c(-c4cc(C)ccc4OC)cccc3c(N)c2C1=O [9-amino-5-(2-methoxy-5-methylphenyl)-2-propyl-2,3-dihydro-1H-pyrrolo[3,4-b]quinolin-1-one]
18 | 3.59 | 0.58 | 0 | CCCN1Cc2nc3c(-c4cc(C)cnc4OC)cccc3c(N)c2C1=O [9-amino-5-(2-methoxy-5-methylpyridin-3-yl)-2-propyl-2,3-dihydro-1H-pyrrolo[3,4-b]quinolin-1-one]
19 | 42.1 | 0.36 | 0.58 | CCCN1Cc2nc3c(-c4cccnc4OC)cccc3c(N)c2C1=O [9-amino-5-(2-methoxypyridin-3-yl)-2-propyl-2,3-dihydro-1H-pyrrolo[3,4-b]quinolin-1-one]
20 | 62.9 | 0.31 | 0.3 | CCCN1Cc2nc3c(-c4cccc(OC)c4)cccc3c(N)c2C1=O [9-amino-5-(3-methoxyphenyl)-2-propyl-2,3-dihydro-1H-pyrrolo[3,4-b]quinolin-1-one]
21 | 60.8 | 0.2 | 0.2 | CCCN1Cc2nc3c(-c4ccc(F)cc4OC)cccc3c(N)c2C1=O [9-amino-5-(4-fluoro-2-methoxyphenyl)-2-propyl-2,3-dihydro-1H-pyrrolo[3,4-b]quinolin-1-one]
22 | 39.2 | 0.39 | 0.62 | CCCN1Cc2nc3c(-c4cnccc4OC)cccc3c(N)c2C1=O [9-amino-5-(4-methoxypyridin-3-yl)-2-propyl-2,3-dihydro-1H-pyrrolo[3,4-b]quinolin-1-one]
23 | 30.3 | 0.31 | 0.32 | CCCN1Cc2nc3c(-c4cnc(F)c(C)c4)cccc3c(N)c2C1=O [9-amino-5-(6-fluoro-5-methylpyridin-3-yl)-2-propyl-2,3-dihydro-1H-pyrrolo[3,4-b]quinolin-1-one]
